Measurements published in patent publication US20220105234A1, “ADHESIVE FOR OSSEOINTEGRATED PERCUTANEOUS DEVICES” (Regents of the University of Minnesota, priority 2020, published 2022).
Where no end group is shown, it is not given here. [ ]: non-standard residue; d: D form.

Tested on: S. aureus
Assay: LIVE/DEAD assay of bacterial membrane integrity
Type: cell-based, Staphylococcus aureus
Settings: SYTO 9 / propidium iodide stain
Text: Assessing the antibacterial activity of GL13K-loaded MSNs against Staphylococcus aureus (USA300, MRSA strain). Overnight culture of S. aureus, USA300 prepared in tryptic soy broth (TSB, DF0370-17-3, Fisher Scientific) were used for assessing the antibacterial activity of AMP-loaded MSNs. USA300 is one of the primary causatives of implant associated infection and implant failure. The optical density of the overnight culture was adjusted to 0.05 and treated with different concentrations of AMP-loaded MSN and AMP alone and MSN (without AMP) and PBS (vehicle control) was used as positive and negative controls. The bacteria was cultured for 24 h under different conditions and metabolic activity tested using BacTiter-Glo™ microbial cell viability assay. The assay was performed using manufacturer's instruction and metabolic activity was measured by luminescence which was measured using microplate reader (Synergy HT, Biotek). […] FIGS. 7A-7C show metabolic activity of USA300 cultured in presence of AMP-loaded MSNs, MSN alone and AMP added directly to the bacterial suspension. Values on x-axis correspond to the loaded AMP concentration.
Overnight culture of S. aureus was treated the same was using method discussed for FIGS. 7A-7C. A LIVE/DEAD assay was performed to visualize cell colonization of surfaces and membrane integrity of all experimental groups. […]

In the case of “D-GL13K (G[dK][dI][dI][dK][dL][dK][dA][dS][dL][dK][dL][dL]) [AMP]”, the “membrane-compromised bacteria (antibacterial capability)” value is reported as “significant membrane-compromised bacteria”.
